From patent US20250129021A1, “SMALL MOLECULE PROTEIN SYNTHESIS MODULATORS” (Interdict Bio, Inc., priority 2023, published 2025)

Assays:
Format in all cases: biochemical
Conditions in all cases: HeLa S3 lysate, sfGFP/mCherry ratio, 2 hrs at 30° C.
CCND1 = assay: In vitro transcription-translation (IVTT) assay, CCND1 reporter
How it was run: (§1)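 Reporter: mCherry, P2A, then 3×FLAG-target peptide-sfGFP fusion, IRES-initiated; HeLa S3 lysate IVTT; cpd dilutions 30 μM−0.1 μM half-log in 100% DMSO (dilution-plate conc); DNA added last; 2 h, 30° C; PBS quench.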

KRAS G12D = assay: In vitro transcription-translation (IVTT) assay, KRAS G12D reporter
How it was run: as §1

ALK = assay: In vitro transcription-translation (IVTT) assay, ALK reporter
How it was run: as §1

MYC = assay: In vitro transcription-translation (IVTT) assay, MYC reporter
How it was run: as §1

Compound | IC50 (CCND1) | IC50 (KRAS G12D) | IC50 (ALK) | IC50 (MYC)
CCNc1c(NCCNC(=O)O[C@@H]2[C@@H](O)CN[C@@H]2Cc2ccc(OC)cc2)c(=O)c1=O [V187589, (2R,3S,4S)-4-hydroxy-2-[(4-methoxyphenyl)methyl]pyrrolidin-3-yl N-(2-{[2-(ethylamino)-3,4-dioxocyclobut-1-en-1-yl]amino}ethyl)carbamate; trifluoroacetic acid] | – | > 30 µM | > 30 µM | > 30 µM
COc1ccc(C[C@H]2NC[C@H](O)[C@H]2OC(=O)NCCCCN)cc1 [V187592, (2R,3S,4S)-4-hydroxy-2-[(4-methoxyphenyl)methyl]pyrrolidin-3-yl N-(4-aminobutyl)carbamate; trifluoroacetic acid] | – | < 10 µM | < 10 µM | < 10 µM
CCN(Cc1ccccc1)Cc1nnc(NC(=O)O[C@@H]2[C@@H](O)CN[C@@H]2Cc2ccc(OC)cc2)s1 [V187597, (2R,3S,4S)-4-hydroxy-2-[(4-methoxyphenyl)methyl]pyrrolidin-3-yl N-(5-{[benzyl(ethyl)amino]methyl}-1,3,4-thiadiazol-2-yl)carbamate] | – | > 30 µM | > 30 µM | > 30 µM
CCN(CC)CCOCCNC(=O)O[C@@H]1[C@@H](O)CN[C@@H]1Cc1ccc(OC)cc1 [V187625, (2R,3S,4S)-4-hydroxy-2-[(4-methoxyphenyl)methyl]pyrrolidin-3-yl N-{2-[2-(diethylamino)ethoxy]ethyl}carbamate; trifluoroacetic acid] | – | > 30 µM | > 30 µM | > 30 µM
COc1ccc(C[C@H]2NC[C@H](O)[C@H]2OC(=O)NCCN2CCC3(CNC3)C2)cc1 [V187644, (2R,3S,4S)-4-hydroxy-2-[(4-methoxyphenyl)methyl]pyrrolidin-3-yl N-(2-{2,6-diazaspiro[3.4]octan-6-yl}ethyl)carbamate; trifluoroacetic acid] | – | > 30 µM | 20 to 30 µM | > 30 µM
COc1ccc(C[C@H]2NC[C@H](O)[C@H]2OC(=O)Nc2nsc(C)n2)cc1 [V187652, (2R,3S,4S)-4-hydroxy-2-[(4-methoxyphenyl)methyl]pyrrolidin-3-yl N-(5-methyl-1,2,4-thiadiazol-3-yl)carbamate; trifluoroacetic acid] | – | > 30 µM | > 30 µM | > 30 µM
COc1ccc(C[C@H]2NC[C@H](O)[C@H]2OC(=O)Nc2n[nH]c(C)n2)cc1 [V187657, (2R,3S,4S)-4-hydroxy-2-[(4-methoxyphenyl)methyl]pyrrolidin-3-yl N-(5-methyl-1H-1,2,4-triazol-3-yl) carbamate] | – | 20 to 30 µM | < 10 µM | 10 to 20 µM
COc1ccc(C[C@H]2NC[C@H](O)[C@H]2OC(=O)Nc2cc(C)[nH]n2)cc1 [V187658, (2R,3S,4S)-4-hydroxy-2-[(4-methoxyphenyl)methyl]pyrrolidin-3-yl N-(5-methyl-1H-pyrazol-3-yl)carbamate; trifluoroacetic acid] | – | > 30 µM | > 30 µM | > 30 µM
COc1ccc(C[C@H]2NC[C@H](O)[C@H]2OC(=O)NCCN2C(=O)CNC2=O)cc1 [V187659, (2R,3S,4S)-4-hydroxy-2-[(4-methoxyphenyl)methyl]pyrrolidin-3-yl N-[2-(2,5-dioxoimidazolidin-1-yl)ethyl]carbamate; trifluoroacetic acid] | – | > 30 µM | < 10 µM | 20 to 30 µM
COC1CCC(CC2NCC(O)C2OC(O)NCCOCC2CNNN2)CC1 (stereo not drawn) [V187723, 4-[hydroxy({[2-(1,2,3-triazolidin-4-ylmethoxy)ethyl]amino})methoxy]-5-[(4-methoxycyclohexyl)methyl]pyrrolidin-3-ol; trifluoroacetic acid] | 20 to 30 µM | > 30 µM | < 10 µM | 10 to 20 µM
COCc1nnc(NC(=O)O[C@@H]2[C@@H](O)CN[C@@H]2Cc2ccc(OC)cc2)s1 [V187730, (2R,3S,4S)-4-hydroxy-2-[(4-methoxyphenyl)methyl]pyrrolidin-3-yl N-[5-(methoxymethyl)-1,3,4-thiadiazol-2-yl]carbamate] | – | > 30 µM | > 30 µM | > 30 µM
COc1ccc(C[C@H]2NC[C@H](O)[C@H]2OC(=O)NNC(=O)Cc2ccccc2)cc1 [V187741, N′-({[(2R,3S,4S)-4-hydroxy-2-[(4-methoxyphenyl)methyl]pyrrolidin-3-yl]oxy}carbonyl)-2-phenylacetohydrazide; trifluoroacetic acid] | – | 10 to 20 µM | < 10 µM | < 10 µM

More lines, now with the values ahead:

IC50 (CCND1) | IC50 (KRAS G12D) | IC50 (ALK) | IC50 (MYC) | Compound
< 10 µM | < 10 µM | < 10 µM | < 10 µM | C#CCNC(=O)O[C@@H]1[C@@H](O)CN[C@@H]1Cc1ccc(OC)cc1 [V0074, (2R,3S,4S)-4-hydroxy-2-[(4-methoxyphenyl)methyl]pyrrolidin-3-yl N-(prop-2-yn-1-yl)carbamate]
– | 20 to 30 µM | < 10 µM | 10 to 20 µM | COc1ccc(C[C@H]2NC[C@H](O)[C@H]2OC(=O)NCCN2CC(O)C(F)(F)C2)cc1 (stereo partly drawn) [V187620]
– | > 30 µM | 20 to 30 µM | > 30 µM | COc1ccc(C[C@H]2NC[C@H](O)[C@H]2OC(=O)NCCN2CC3(CNC3)C2)cc1 [V187623, (2R,3S,4S)-4-hydroxy-2-[(4-methoxyphenyl)methyl]pyrrolidin-3-yl N-(2-{2,6-diazaspiro [3.3]heptan-2-yl}ethyl)carbamate]
– | > 30 µM | < 10 µM | > 30 µM | COc1ccc(C[C@H]2NC[C@H](O)[C@H]2OC(=O)NCCN2CC(N)C2)cc1 [V187624, (2R,3S,4S)-4-hydroxy-2-[(4-methoxyphenyl)methyl]pyrrolidin-3-yl N-[2-(3-aminoazetidin-1-yl)ethyl]carbamate]
– | 20 to 30 µM | < 10 µM | 10 to 20 µM | COc1ccc(C[C@H]2NC[C@H](O)[C@H]2OC(=O)NCCOCCN2C(=O)CNC2=O)cc1 [V187627]
– | 10 to 20 µM | < 10 µM | < 10 µM | COc1ccc(C[C@H]2NC[C@H](O)[C@H]2OC(=O)NCCOCCn2ccnc2)cc1 [V187628, (2R,3S,4S)-4-hydroxy-2-[(4-methoxyphenyl)methyl]pyrrolidin-3-yl N-{2-[2-(imidazol-1-yl)ethoxy]ethyl}carbamate; trifluoroacetic acid]
– | 10 to 20 µM | < 10 µM | 10 to 20 µM | COc1ccc(C[C@H]2NC[C@H](O)[C@H]2OC(=O)NCCCCCN(C)C)cc1 [V187638, (2R,3S,4S)-4-hydroxy-2-[(4-methoxyphenyl)methyl]pyrrolidin-3-yl N-[5-(dimethylamino)pentyl]carbamate]
– | > 30 µM | > 30 µM | > 30 µM | COc1ccc(C[C@H]2NC[C@H](O)[C@H]2OC(=O)NCCN2CCC3(CC(O)C3)C2)cc1 (stereo partly drawn) [V187642, (2R,3S,4S)-4-hydroxy-2-[(4-methoxyphenyl)methyl]pyrrolidin-3-yl N-(2-{2-hydroxy-6-azaspiro[3.4]octan-6-yl}ethyl)carbamate]
– | > 30 µM | 10 to 20 µM | > 30 µM | COc1ccc(C[C@H]2NC[C@H](O)[C@H]2OC(=O)NC2CNC2)cc1 [V187679, (2R,3S,4S)-4-hydroxy-2-(4-methoxybenzyl)pyrrolidin-3-yl azetidin-3-ylcarbamate]
– | > 30 µM | > 30 µM | > 30 µM | COc1ccc(CC2NCC(O)C2OC(=O)NC2CC(N)C2)cc1 [V187681, (2R,3S,4S)-4-hydroxy-2-[(4-methoxyphenyl)methyl]pyrrolidin-3-yl N-[(1s,3s)-3-aminocyclobutyl]carbamate]
– | > 30 µM | 10 to 20 µM | > 30 µM | COc1ccc(CC2NCC(O)C2OC(=O)NC2CC(N)C2)cc1 [V187682, (2R,3S,4S)-4-hydroxy-2-[(4-methoxyphenyl)methyl]pyrrolidin-3-yl N-[(1r,3r)-3-aminocyclobutyl]carbamate]
– | > 30 µM | > 30 µM | 20 to 30 µM | COc1ccc(C[C@H]2NC[C@H](O)[C@H]2OC(=O)NC[C@@H]2CCCN2)cc1 [V187684, (2R,3S,4S)-4-hydroxy-2-[(4-methoxyphenyl)methyl]pyrrolidin-3-yl N-[(2S)-pyrrolidin-2-ylmethyl]carbamate; trifluoroacetic acid]
– | > 30 µM | > 30 µM | > 30 µM | COc1ccc(C[C@H]2NC[C@H](O)[C@H]2OC(=O)N[C@@H]2CCNC2)cc1 [V187688, (2R,3S,4S)-4-hydroxy-2-(4-methoxybenzyl)pyrrolidin-3-yl ((R)-pyrrolidin-3-yl)carbamate]
10 to 20 µM | 20 to 30 µM | < 10 µM | < 10 µM | COc1ccc(C[C@H]2NC[C@H](O)[C@H]2OC(=O)NCc2ncc[nH]2)cc1 [V187815, (2R,3S,4S)-4-hydroxy-2-[(4-methoxyphenyl)methyl]pyrrolidin-3-yl N-(1H-imidazol-2-ylmethyl)carbamate]
> 30 µM | > 30 µM | < 10 µM | 20 to 30 µM | COc1ccc(C[C@H]2NC[C@H](O)[C@H]2OC(=O)NCCc2ncc[nH]2)cc1 [V187816, (2R,3S,4S)-4-hydroxy-2-[(4-methoxyphenyl)methyl]pyrrolidin-3-yl N-[2-(1H-imidazol-2-yl)ethyl]carbamate]
> 30 µM | > 30 µM | < 10 µM | 20 to 30 µM | COc1ccc(C[C@H]2NC[C@H](O)[C@H]2OC(=O)NCCc2ncc(C)[nH]2)cc1 [V187818, (2R,3S,4S)-4-hydroxy-2-[(4-methoxyphenyl)methyl]pyrrolidin-3-yl N-[2-(4-methyl-3H-imidazol-2-yl)ethyl]carbamate]
20 to 30 µM | > 30 µM | < 10 µM | 10 to 20 µM | COc1ccc(C[C@H]2NC[C@H](O)[C@H]2OC(=O)NCCc2nc3ccccc3[nH]2)cc1 [V187820, (2R,3S,4S)-4-hydroxy-2-[(4-methoxyphenyl)methyl]pyrrolidin-3-yl N-[2-(1H-1,3-benzodiazol-2-yl)ethyl]carbamate]
